From PMC5597618, “Identification and characterization of the novel reversible and selective cathepsin X inhibitors” (Scientific Reports, 2017)
Like-named read-outs stand apart in the source and are kept apart here.

Tests used:
cathepsin X [1] = details: cited from earlier work
PC-12 cells = assay: Neurite outgrowth assay; format: cell-based, rat; details: 10 µM; 48 h; vs DMSO control
Description: (§1) Human prostate cancer cell line PC-3 cells (obtained from ATCC, Manassas, USA; ATCC Number: CRL-1435) were cultured in F-12 (Gibco) and Advanced DMEM (Gibco) (1:1) with 10% FBS, 1% penicillin/streptomycin and 1% L-glutamine. Rat pheochromocytoma PC-12 cells (obtained from ATCC, Manassas, USA; ATCC Number: CRL-1721) were cultured in Advanced DMEM (Gibco) with 5% FBS, 10% heat-inactivated horse serum, 1% penicillin/streptomycin and 1% L-glutamine.
PC-12 cells were seeded in 96-well plates (4 × 10^4/well) coated with poly-L-lysine. Next day, the cells were treated with compounds (10 µM) in serum-free medium, and neurite outgrowth was measured after 48 h using Neurite Outgrowth Staining Kit (Molecular Probes), in accordance with the manufacturer’s instructions. Fluorescence intensity was measured at 525 nm with excitation at 483 nm for cell viability indicator and at 567 nm with excitation at 554 nm for cell membrane indicator. Results, expressing increased neurite outgrowth, were normalized to cells treated with DMSO.

[2] = target: T1, Cathepsin B (exopeptidase a.) (Homo sapiens, UniProt P07858); assay: Ki against cathepsin B exopeptidase activity (Abz-GIVRAK(Dnp)-OH); format: biochemical; details: SigmaPlot at 3 different substrate concentrations; pH 5.0
T1 construct: made in house; host or cells: E. coli
Description: (§2) Recombinant or native human cathepsins were used: recombinant cathepsin X and cathepsin S were expressed in Pichia pastoris, recombinant cathepsins B and L in E. coli, [43], native cathepsin H was isolated from human liver. Assay buffers for determining activities of cathepsins X and L consisted of 100 mM sodium acetate buffer, pH 5.5, for cathepsins H, S and B (endopeptidase activity) of 100 mM phosphate buffer pH 6.8, 6.5 and 6.0, respectively and for cathepsin B (exopeptidase activity) of 60 mM acetate buffer pH 5.0. Each assay buffer contained 0.01% Triton X-100 to prevent false positive inhibition due to aggregation of compounds[45], 5 mM cysteine, 1.5 mM EDTA and 0.1% PEG 8000. Enzymes were activated at 37 °C for 5 min before the assays.
(§3) Ki was determined by measuring the initial rate of hydrolysis at three different substrate concentrations (Supplementary Table S2) in the presence of seven different compound concentrations (0, 20, 40, 60, 80, 100 and 200 μM). 90 μL of the activated cathepsin was added to a black 96-well plate with 5 μL of the substrate and 5 μL of the compound. Formation of the fluorescent degradation product was monitored continuously at 460 nm ± 10 nm with excitation at 380 nm ± 20 nm (for AMC substrates) and, as noted above for Abz substrates, at 37 °C. All measurements were performed twice and in duplicate. The resulting data were analyzed by non-linear regression using the software SigmaPlot®, Enzyme Kinetics Module™ 1.3 and were fitted to the equation v = v max [S]/([S] (1 + [I]/αK i ) + K m (1 + [I]/K i )) (first group of compounds). For Ki determination against cathepsin X for the compounds from the second group, progress curves in the absence and presence of each putative inhibitor were fitted to the reaction mechanism presented in Fig. 3b. In this case the resulting data as well as reactivation curves were fitted to the equation system presented in Fig. 3c using ENZO application. For calculation of kinetic parameters from reaction progress curves the fluorescence coefficient for conversion of arbitrary fluorescence units to concentration was first determined. The fluorescence coefficient was calculated as the slope from the plot of initial substrate concentration vs. height of the plateau of the progress curve after complete hydrolysis of increasing concentrations of substrate, using linear regression.
(§4) Supplementary Table S2. Substrates used for the various cathepsins and their concentrations […]
(§5) Enzyme Substrate Concentration (µM) Reference/Company cathepsin X Abz-FEK(Dnp)-OH 3.25, 6.5, 13 Puzer et al.3 cathepsin B - endopept. Z-RR-AMC 60, 180, 360 Bachem cathepsin B - exopept. Abz-GIVRAK(Dnp)-OH 1, 3, 6 Bachem cathepsin S Z-VVR-AMC 0.5, 1, 1.5 Biomol cathepsin L Z-FR-AMC 0.5, 1, 4 Bachem cathepsin H Z-R-AMC 20, 80, 160 Biomol […]

cathepsin X [3] = target: T2, cathepsin X (Homo sapiens, UniProt Q9UBR2); assay: Determination of relative inhibition of cathepsin X; format: biochemical; design: made in house; host or cells: Pichia pastoris
Description: as §2
Abz-FEK(Dnp)-OH was used as cathepsin X specific substrate in activity assays. 90 μL of activated cathepsin X (20 nM) was added to a black 96-well plate with 5 μL of substrate (3.25 μM final concentration) and 5 μL of the compound (50 μM final concentration). The reaction was monitored continuously at 420 nm ± 10 nm with excitation at 320 nm ± 20 nm and at 37 °C. Relative inhibition (%) was calculated with the equation (1 − v i/v 0) × 100, where v i is reaction velocity in the presence of the compound and v 0 is reaction velocity without the compound.

PC-3 cells = assay: Real time cell migration assay (xCELLigence, CIM plates); format: cell-based, human; details: 10 μM, compound in upper and bottom compartments, vs DMSO; for inhibition at 10 µM: Homo sapiens, PC-3
Description: as §1
Cell migration assay was performed on a Real-Time Cell Analyzer Dual Plate (RTCA DP) Instrument, xCELLigence System (ACEA Biosciences). CIM plates were coated with fibronectin (10 μg/ml, BD Biosciences) on the down and upper side of the microporous PET membrane for 30 min at room temperature and 2 hours at 37 °C, respectively. Excess fibronectin was removed and wells washed with phosphate buffer saline (PBS). Compounds (10 μM) were added to the complete media (lower chambers) or serum-free media (upper chambers). 0.1% DMSO was used as a control. 2 × 10^4 cells were plated per well. In additional experimental setting, inhibitors were added only to the upper chambers 3 hours after experiment started in order to measure their impact only on the cell migration and not the adhesion. Impedance data, reported as cell index, were measured continuously every 15 min for 72 hours and then analyzed with the RTCA Software (ACEA Biosciences, Inc.). Results are normalized to cells treated with DMSO.

Cathepsin L = target: T3, Cathepsin L (Homo sapiens, UniProt P07711); assay: Ki against cathepsin L (Z-FR-AMC); format: biochemical; details: SigmaPlot at 3 different substrate concentrations; pH 5.5
T3 construct: made in house; host or cells: E. coli
Description: as §2, §3, §4, §5

cathepsin X [4] = target: T2, cathepsin X; assay: Determination of Ki values and inhibition mechanism against cathepsin X (Abz-FEK(Dnp)-OH substrate); format: biochemical; design: made in house; host or cells: Pichia pastoris; details: for Inhibition mechanism: ENZO
Description: as §2, §3, §4, §5

[5] = target: T4, Cathepsin B (endopeptidase a.) (Homo sapiens, UniProt P07858); assay: Ki against cathepsin B endopeptidase activity (Z-RR-AMC); format: biochemical; details: SigmaPlot at 3 different substrate concentrations; pH 6.0
T4 construct: made in house; host or cells: E. coli
Description: as §2, §3, §4, §5

Cathepsin S = target: T5, Cathepsin S (Homo sapiens, UniProt P25774); assay: Ki against cathepsin S (Z-VVR-AMC); format: biochemical; details: SigmaPlot at 3 different substrate concentrations; pH 6.5
T5 construct: made in house; host or cells: Pichia pastoris
Description: as §2, §3, §4, §5

Cathepsin H = target: T6, Cathepsin H (Homo sapiens, UniProt P09668); assay: Ki against cathepsin H (Z-R-AMC); format: biochemical; details: SigmaPlot at 3 different substrate concentrations; pH 6.8
T6 construct: native cathepsin H was isolated from human liver; from tissue; host or cells: human liver
Description: as §2, §3, §4, §5

[6] = target: T7, cathepsin X in lysates of PC-3 cells (Homo sapiens, UniProt Q9UBR2); assay: Cathepsin X activity in PC-3 cell lysates; format: cell-based; details: 10 μM
T7 construct: endogenous in cells; host or cells: PC-3
Description: To detect cathepsin X activity in cell lysates, 95 μL of activated cell lysates (0.2 mg/mL total protein in assay buffer) were added to a black 96-well plate containing 5 μL of the substrate. The further procedure was the same as above. In some experiments lysates of non-treated cells were pre-incubated with 10 μM of compounds for 30 minutes and then activity was measured as described above.
For testing the enzyme activity in cell lysates, cells were treated with 10 μM of compounds. After 24 hours lysates were prepared in 50 mM Na acetate buffer pH 5.5 with 1 mM EDTA, 100 mM NaCl and 0.25% Triton X-100. Total protein concentration was determined by DC Protein Assay (Bio Rad) according to the instructions.

cathepsin X [7] = target: T2, cathepsin X; assay: Reversibility of binding: washout experiment and dilution method; format: biochemical; design: made in house; host or cells: Pichia pastoris
Description: The reversibility of binding was determined in two separate experiments. In the washout experiment[47] 20 nM cathepsin X was mixed with a saturating level of the inhibitor (100 μM) and incubated for 1 hour at room temperature. One half of the reaction mixture was assayed for activity and the other half was diluted approximately 200000-fold with assay buffer prior to the activity assay. Step-wise dilution and concentration was performed on a Centricon (Millipore) with 10 kDa cut-off. In the dilution method[19] cathepsin X (5 μM) was incubated with inhibitor (100 μM). Half the reaction mixture was diluted 100-fold with the assay buffer containing substrate and immediately assayed for activity, the other half was incubated for 2 hours, diluted 100-fold and then assayed for activity.

[8] = screening at 50 μM compound, read-out: relative inhibition of cathepsin X
[9] = second group, 50 μM compound, 1 h preincubation, read-out: % inhibition (1 h preincubation)
[10] = second group, progress curve analysis with ENZO
[11] = first group, SigmaPlot non-linear regression at 3 different substrate concentrations

T3 sequence (P07711 114-333): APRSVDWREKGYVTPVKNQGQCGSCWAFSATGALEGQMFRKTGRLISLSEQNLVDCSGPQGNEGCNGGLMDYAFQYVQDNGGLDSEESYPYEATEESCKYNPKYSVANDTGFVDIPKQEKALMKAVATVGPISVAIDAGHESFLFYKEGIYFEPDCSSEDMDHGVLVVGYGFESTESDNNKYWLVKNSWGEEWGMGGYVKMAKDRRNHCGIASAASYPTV
T2 sequence (Q9UBR2 62-303): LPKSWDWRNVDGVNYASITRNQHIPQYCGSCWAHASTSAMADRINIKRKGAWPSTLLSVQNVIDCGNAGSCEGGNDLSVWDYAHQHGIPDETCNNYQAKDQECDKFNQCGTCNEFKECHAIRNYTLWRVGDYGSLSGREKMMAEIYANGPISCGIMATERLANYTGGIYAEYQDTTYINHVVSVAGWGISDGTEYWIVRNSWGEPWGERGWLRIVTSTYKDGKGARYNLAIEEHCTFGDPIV
T5 sequence (P25774 115-331): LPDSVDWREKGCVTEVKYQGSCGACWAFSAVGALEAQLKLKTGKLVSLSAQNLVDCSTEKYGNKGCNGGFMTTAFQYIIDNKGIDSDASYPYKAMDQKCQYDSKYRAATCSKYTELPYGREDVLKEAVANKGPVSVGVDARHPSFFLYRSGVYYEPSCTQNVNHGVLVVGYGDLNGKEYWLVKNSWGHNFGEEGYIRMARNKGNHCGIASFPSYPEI
T6 sequence (P09668 116-335 limits assumed, other chains not shown): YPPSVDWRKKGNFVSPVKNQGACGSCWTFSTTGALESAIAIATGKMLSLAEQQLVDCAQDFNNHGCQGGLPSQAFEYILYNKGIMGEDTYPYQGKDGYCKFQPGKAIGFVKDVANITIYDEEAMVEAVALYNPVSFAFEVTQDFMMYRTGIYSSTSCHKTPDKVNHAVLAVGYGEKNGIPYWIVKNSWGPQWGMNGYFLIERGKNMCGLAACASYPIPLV
T7 sequence (Q9UBR2 62-303): as the sequence (Q9UBR2 62-303) above

SMILES: CCCNC(=O)C1OC1C(=O)NC(C(=O)O)C(C)CC (stereo not drawn) [nPrNH-(2 S,3 S)tEps-Ile-OH]
- kinact/Ki (cathepsin X [1]): 225 M^–1s^–1
- preference for cathepsin X over cathepsins B or L (cathepsin X [1]): 10 fold

SMILES: Cc1ccccc1-n1cnnc1SCC(=O)c1ccc2c(c1)OCCO2 [Compound 20, 1-(2,3-Dihydrobenzo[b][1,4]dioxin-6-yl)-2-((4-(o-tolyl)-4H-1,2,4-triazol-3-yl)thio)ethan-1-one]
- increase of neurite outgrowth (PC-12 cells): statistically significant increase
- Ki [2]: 83.1 ± 7 µM
- inhibition at 50 µM (cathepsin X [3]; [8]): > 70%
- inhibition at 50 µM (cathepsin X [3]; [9]): 79%
- inhibition at 10 µM (PC-3 cells): 15 to 30%
- Ki Cathepsin L (Cathepsin L): n.i.
- Inhibition mechanism (cathepsin X [4]; second group): competitive
- Ki (cathepsin X [4]; [10]): 8.78 ± 0.39 µM
- Ki [5]: 301 ± 214 µM
- Ki Cathepsin S (Cathepsin S): n.i.
- Ki (Cathepsin H): > 500 µM

SMILES: Cn1cnc(SCC(=O)c2ccc3c(c2)OCCO3)n1 [Compound 12, 1-(2,3-Dihydrobenzo[b][1,4]dioxin-6-yl)-2-((1-methyl-1H-1,2,4-triazol-3-yl)thio)ethanone]
- Ki [2]: 120.5 ± 0.9 µM
- inhibition of cathepsin X enzyme activity in lysates of PC-3 cells [6]: trend toward less potent inhibition
- inhibition at 50 µM (cathepsin X [3]; [8]): > 70%
- inhibition at 50 µM (cathepsin X [3]; [9]): 82%
- inhibition of PC-3 cell migration (PC-3 cells): failed to affect cell migration
- Ki (Cathepsin L): > 500 µM
- Inhibition mechanism (cathepsin X [4]; second group): competitive
- Ki (cathepsin X [4]; [10]): 5.88 ± 0.21 µM
- Ki [5]: > 500 µM
- Ki Cathepsin S (Cathepsin S): n.i.
- Ki (Cathepsin H): > 500 µM

SMILES: Nc1nc(SCC(=O)c2ccc3c(c2)OCCO3)n[nH]1 [Compound 2, 2-((5-Amino-1H-1,2,4-triazol-3-yl)thio)-1-(2,3-dihydrobenzo[b][1,4]dioxin-6-yl)ethanone]
- increase of neurite outgrowth (PC-12 cells): statistically significant increase
- Ki [2]: 210 ± 11 µM
- inhibition at 50 µM (cathepsin X [3]; [8]): 60 to 75%
- inhibition at 10 µM (PC-3 cells): 15 to 30%
- Ki (Cathepsin L): 902 ± 89.7 µM
- Ki (cathepsin X [4]; [11]): 29.2 ± 2.44 µM
- Ki [5]: 392 ± 121 µM
- Ki (Cathepsin S): 463 ± 42.9 µM
- Ki (Cathepsin H): 483.1 ± 0.6 µM

SMILES: Cc1[nH]c2ccccc2c1C(=O)CSc1n[nH]c(N)n1 [Compound 1, 2-((5-Amino-1H-1,2,4-triazol-3-yl)thio)-1-(2-methyl-1H-indol-3-yl)ethanone]
- Ki [2]: 371 ± 97.9 µM
- inhibition of cathepsin X enzyme activity in lysates of PC-3 cells [6]: trend toward less potent inhibition
- inhibition at 50 µM (cathepsin X [3]; [8]): 60 to 75%
- inhibition of PC-3 cell migration (PC-3 cells): failed to affect cell migration
- Ki (Cathepsin L): 975 ± 101 µM
- Ki (cathepsin X [4]; [11]): 38.4 ± 0.2 µM
- Ki [5]: > 1000 µM
- Ki (Cathepsin S): > 1000 µM
- Ki (Cathepsin H): 1870 ± 240 µM

SMILES: CC(C)C[C@H](NC(=O)[C@H]1O[C@@H]1C(=O)O)C(=O)NCCCCN=C(N)N [Compound E-64]
- kinact/Ki (cathepsin X [1]): 775 M^–1s^–1
- cathepsin X activity after washout (cathepsin X [7]; 1-hour pre-incubation, 100 μM inhibitor, 200000-fold dilution, 10 kDa cut-off): retained cathepsin X inhibition
- enzyme activity recovered after 100-fold rapid dilution (cathepsin X [7]; dilution method, cathepsin X 5 μM, inhibitor 100 μM): remained inhibited
